Experimental data published in PubChem BioAssay AID248 (DTP/NCI, 2004).
Several values for one entry are separate records, joined by “and”; a condition that tells them apart may be missing. Identical values can stand only once. Toxic doses and inconclusive results are not listed. No stated cut-off is given here; in the data, active means T/C of 150% or more; inactive means T/C below 125%.

System: L1210 leukemia ip in BDF1 mice, survival T/C
Experiment: NCI In Vivo Anticancer Drug Screen. Data for tumor model L1210 Leukemia (intraperitoneal) in B6D2F1 (BDF1) mice
Details: endpoint: mean survival time, higher = longer survival
In short: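 Tumor cells were implanted, animals were treated, and survival was followed. The result divides the treated measurement by the vehicle-control measurement.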

[1] = dose: 100.0 mg/kg/injection, schedule: Q01DX009 (ip), vehicle: Klucel (hydroxypropylcellulose) (HPC)
[2] = dose: 100.0 mg/kg/injection, schedule: Q04DX003 (ip), vehicle: Klucel (hydroxypropylcellulose) (HPC)
[3] = dose: 200.0 mg/kg/injection, schedule: Q01DX009 (ip), vehicle: Klucel (hydroxypropylcellulose) (HPC)
[4] = dose: 200.0 mg/kg/injection, schedule: Q04DX003 (ip), vehicle: Klucel (hydroxypropylcellulose) (HPC)
[5] = dose: 400.0 mg/kg/injection, schedule: Q01DX009 (ip), vehicle: Klucel (hydroxypropylcellulose) (HPC)
[6] = dose: 400.0 mg/kg/injection, schedule: Q04DX003 (ip), vehicle: Klucel (hydroxypropylcellulose) (HPC)
[7] = dose: 100.0 mg/kg/injection, schedule: Q01DX001 (ip), vehicle: saline
[8] = dose: 200.0 mg/kg/injection, schedule: Q01DX001 (ip), vehicle: saline
[9] = dose: 400.0 mg/kg/injection, schedule: Q01DX001 (ip), vehicle: saline
[10] = dose: 100.0 mg/kg/injection, schedule: Q04DX002 (ip), vehicle: Klucel (hydroxypropylcellulose) (HPC)
[11] = dose: 200.0 mg/kg/injection, schedule: Q04DX002 (ip), vehicle: Klucel (hydroxypropylcellulose) (HPC)
[12] = dose: 100.0 mg/kg/injection, schedule: Q01DX001 (ip), vehicle: Klucel (hydroxypropylcellulose) (HPC)
[13] = dose: 200.0 mg/kg/injection, schedule: Q01DX001 (ip), vehicle: Klucel (hydroxypropylcellulose) (HPC)
[14] = dose: 400.0 mg/kg/injection, schedule: Q01DX001 (ip), vehicle: Klucel (hydroxypropylcellulose) (HPC)
[15] = dose: 50.0 mg/kg/injection, schedule: Q01DX009 (ip), vehicle: Klucel (hydroxypropylcellulose) (HPC)
[16] = dose: 100.0 mg/kg/injection, schedule: Q04DX003 (ip), vehicle: saline
[17] = dose: 200.0 mg/kg/injection, schedule: Q04DX003 (ip), vehicle: saline
[18] = dose: 400.0 mg/kg/injection, schedule: Q04DX002 (ip), vehicle: Klucel (hydroxypropylcellulose) (HPC)

Measured: T/C

Nc1ncnc2c1c(-c1nc(=S)[nH][nH]1)cn2C1OC(CO)C(O)C1O (configuration not stated)
inactive: dose: 100.0 mg/kg/injection, schedule: Q01DX005 (ip), vehicle: saline 106 % of control | dose: 200.0 mg/kg/injection, schedule: Q01DX005 (ip), vehicle: saline 108 % of control

COc1ccccc1NC(=O)Oc1c(C(C)C)cccc1C(C)C
inactive: [1] 94 % of control | [2] 95 % of control | [3] 97 % of control | [4] 102 % of control | [5] 106 % of control | [6] 94 % of control

C/C(=N\Nc1cccc(N)c1)c1ccccc1
inactive: dose: 25.6 mg/kg/injection, schedule: Q04DX002 (ip), vehicle: saline with Tween-80 89 % of control | dose: 64.0 mg/kg/injection, schedule: Q04DX002 (ip), vehicle: saline with Tween-80 89 % of control

COC(=O)C1CC2CCC1O2 (configuration not stated)
inactive: dose: 100.0 mg/kg/injection, schedule: Q01DX009 (ip), vehicle: carboxymethylcellulose (CMC) 100 % of control | dose: 200.0 mg/kg/injection, schedule: Q01DX009 (ip), vehicle: carboxymethylcellulose (CMC) 98 % of control | dose: 400.0 mg/kg/injection, schedule: Q01DX009 (ip), vehicle: carboxymethylcellulose (CMC) 94 % of control

COc1ccccc1-n1c(=O)c(N=Nc2ccc(Cl)cc2)c(O)n(-c2ccccc2C)c1=S
inactive: dose: 75.0 mg/kg/injection, schedule: Q04DX003 (ip), vehicle: Klucel (hydroxypropylcellulose) (HPC) 94 % of control | dose: 150.0 mg/kg/injection, schedule: Q04DX003 (ip), vehicle: Klucel (hydroxypropylcellulose) (HPC) 107 % of control | dose: 300.0 mg/kg/injection, schedule: Q04DX003 (ip), vehicle: Klucel (hydroxypropylcellulose) (HPC) 104 % of control

Cc1ncccc1CCO
inactive: [7] 96 % of control | [8] 100 % of control | [9] 102 % of control

O=S(=O)(N=S(CCCl)CCCl)c1ccccc1
inactive: [10] 111 % of control | [11] 111 % of control

O=C(O)c1c[nH]c2cc(Cl)ccc2c1=O
inactive: [12] 90 % of control | dose: 100.0 mg/kg/injection, schedule: Q04DX003 (ip), vehicle: saline with Tween-80 100 % of control | [13] 101 % of control | dose: 200.0 mg/kg/injection, schedule: Q04DX003 (ip), vehicle: saline with Tween-80 101 % of control and 105 % of control | [14] 97 % of control | dose: 400.0 mg/kg/injection, schedule: Q04DX003 (ip), vehicle: saline with Tween-80 100 % of control and 90 % of control

CCN(CC)CCCCCOC(=O)c1ccccc1
inactive: [15] 92 % of control | [2] 97 % of control | [3] 96 % of control | [4] 107 % of control

CC(C)CCSc1nc(N)nc2nc[nH]c12
inactive: dose: 62.5 mg/kg/injection, schedule: Q01DX Z (ip), vehicle: carboxymethylcellulose (CMC) 122 % of control | dose: 125.0 mg/kg/injection, schedule: Q01DX Z (ip), vehicle: carboxymethylcellulose (CMC) 107 % of control | dose: 250.0 mg/kg/injection, schedule: Q01DX Z (ip), vehicle: carboxymethylcellulose (CMC) 100 % of control

c1ccc(-c2c3ccccc3c(-c3ccccc3)c3c2ccc2ccccc23)cc1
inactive: [15] 91 % of control | [3] 91 % of control

Cc1ccc(C(=O)N2CCCCC2)c[n+]1C
inactive: [7] 104 % of control | [8] 100 % of control | [9] 105 % of control

COc1ccc(C2=Cc3ccc(OC(C)=O)cc3OC2)cc1
inactive: dose: 50.0 mg/kg/injection, schedule: Q01DX001 (sc), vehicle: steriod suspending solution 101 % of control | dose: 100.0 mg/kg/injection, schedule: Q01DX001 (sc), vehicle: steriod suspending solution 103 % of control | dose: 200.0 mg/kg/injection, schedule: Q01DX001 (sc), vehicle: steriod suspending solution 101 % of control | dose: 400.0 mg/kg/injection, schedule: Q01DX001 (sc), vehicle: steriod suspending solution 95 % of control

CC1(C)N=C(N)N=C(N)N1NC(=O)c1cccc(Cl)c1
inactive: [16] 101 % of control | [17] 94 % of control

CC(=O)Nc1ccc(S(=O)(=O)NO)cc1
inactive: dose: 50.0 mg/kg/injection, schedule: Q01DX009 (ip), vehicle: saline 96 % of control | dose: 100.0 mg/kg/injection, schedule: Q01DX009 (ip), vehicle: saline 100 % of control | [16] 100 % of control | dose: 200.0 mg/kg/injection, schedule: Q01DX009 (ip), vehicle: saline 94 % of control | [17] 103 % of control | dose: 400.0 mg/kg/injection, schedule: Q04DX003 (ip), vehicle: saline 101 % of control

Nc1c(Cl)ncnc1NC1COC(CO)C1O (configuration not stated)
inactive: [12] 100 % of control | [13] 110 % of control | [14] 100 % of control

Cn1c(=O)c2ccccc2c2ccccc21
inactive: [1] 99 % of control | [2] 100 % of control | [3] 97 % of control | [4] 100 % of control | [5] 100 % of control | [6] 105 % of control

CCC(=O)/C=C/c1ccc(Cl)cc1
inactive: [1] 98 % of control | [2] 98 % of control | [3] 97 % of control | [4] 104 % of control | [5] 97 % of control | [6] 102 % of control

O=C1OC(c2ccccc2)=C/C1=C\c1[nH]c(=S)[nH]c(=O)c1Cc1ccc(Cl)cc1
inactive: dose: 100.0 mg/kg/injection, schedule: Q01DX001 (ip), vehicle: saline with Tween-80 102 % of control | dose: 200.0 mg/kg/injection, schedule: Q01DX001 (ip), vehicle: saline with Tween-80 89 % of control | dose: 400.0 mg/kg/injection, schedule: Q01DX001 (ip), vehicle: saline with Tween-80 90 % of control

CCOC(=O)c1cccc2ccc[n+](C)c12
inactive: dose: 37.5 mg/kg/injection, schedule: Q04DX003 (ip), vehicle: saline 91 % of control | dose: 75.0 mg/kg/injection, schedule: Q01DX001 (ip), vehicle: saline 97 % of control | dose: 75.0 mg/kg/injection, schedule: Q04DX003 (ip), vehicle: saline 91 % of control | dose: 150.0 mg/kg/injection, schedule: Q01DX001 (ip), vehicle: saline 97 % of control | dose: 150.0 mg/kg/injection, schedule: Q04DX003 (ip), vehicle: saline 95 % of control

CCOC(=O)Nc1cc2c(c(N)n1)N=C(CN(C)c1ccc(C(=O)OC)cc1)CN2
inactive: dose: 5.0 mg/kg/injection, schedule: Q01DX009 (ip), vehicle: saline with Tween-80 105 % of control | dose: 10.0 mg/kg/injection, schedule: Q01DX009 (ip), vehicle: saline with Tween-80 118 % of control | dose: 20.0 mg/kg/injection, schedule: Q01DX009 (ip), vehicle: saline with Tween-80 124 % of control | dose: 100.0 mg/kg/injection, schedule: Q01DX001 (ip), vehicle: other 107 % of control | dose: 200.0 mg/kg/injection, schedule: Q01DX001 (ip), vehicle: other 111 % of control

NNC(=O)CNc1cccc(F)c1
inactive: [10] 105 % of control | [11] 119 % of control

COc1ccc(/C=N/NC(=O)c2ccc(OC)cc2)cc1
inactive: [2] 101 % of control | [4] 90 % of control | [6] 92 % of control

Cc1cc(C)n2ncnc2n1
inactive: dose: 100.0 mg/kg/injection, schedule: Q01DX009 (ip), vehicle: saline with Tween-80 105 % of control | dose: 200.0 mg/kg/injection, schedule: Q01DX009 (ip), vehicle: saline with Tween-80 99 % of control

COC(=O)c1[nH]nc(-c2ccccc2-c2ccccc2C(=O)O)c1C(=O)OC
inactive: [10] 97 % of control | [11] 108 % of control | [18] 105 % of control

S=P(/C=C/c1ccccc1)(c1ccccc1)c1ccccc1
inactive: [1] 97 % of control | [2] 95 % of control | [3] 92 % of control | [4] 92 % of control | [6] 92 % of control

Cc1ccc(C(=O)CC(Sc2ccccc2N)c2c(Cl)cccc2Cl)c(C)c1 (configuration not stated)
inactive: [15] 94 % of control | dose: 100.0 mg/kg/injection, schedule: Q01DX005 (ip), vehicle: Klucel (hydroxypropylcellulose) (HPC) 108 % of control | [1] 94 % of control | [10] 98 % of control | dose: 200.0 mg/kg/injection, schedule: Q01DX005 (ip), vehicle: Klucel (hydroxypropylcellulose) (HPC) 89 % of control | [3] 91 % of control | [11] 109 % of control | [18] 117 % of control

ClCc1c(Cl)c(Cl)c(Cl)c(CCl)c1Cl
inactive: [1] 98 % of control | [2] 96 % of control | [3] 96 % of control | [4] 98 % of control | [6] 102 % of control
